Measurements published in patent EP0585371B1, “AROMATIC OLIGOMERIC COMPOUNDS USEFUL AS MIMICS OF BIOACTIVE MACROMOLECULES” (RHONE-POULENC RORER INTERNATIONAL (HOLDINGS) INC., priority 1991, dated 1992).

Assays:
normal pooled plasma = experiment: Anticoagulation activity, Activated Partial Thromboplastin Time (APTT) test; conditions: concentration required to double clotting time
Method: The following test measures anticoagulant activity of the oligomers of the present invention and utilizes the Activated Partial Thromboplastin Time (APTT) test, with the following procedures.
To an assay cuvette is added 100 µl of normal pooled plasma (George King Biomedical Inc., Kansas) and […] of a solution containing the test compound in aqueous 50 mM Tris hydrochloride at pH 7.5 (0.2 mg of sample in one ml buffer). The sample is placed in a MLA coagulation timer which automatically maintains the sample at 37°C for 2.5 minutes, 100 µl of actin activated cephaloplastin reagent is injected, kept 5 minutes, 100 µl of 35 mM CaCI is injected, and clot formation is determined photometrically and the clotting time recorded. Each example is examined at a variety of concentrations, generally from about .025 mg/ml to about 1 mg/ml, and the clotting times are graphed as a function of concentration. From the graphic results, the concentration required to double clotting time (ICDCT) is calculated by linear interpolation.

vWF Binding to Gp1b = target: T1, vWF Binding to Gp1b (Homo sapiens, UniProt P04275+P07359); experiment: Inhibition of ristocetin-induced binding of 125I-vWF to formalin-fixed platelets; conditions: ristocetin 1.0 mg/ml; for Ristocetin-Induced Inhibition of vWF Binding to Gp1b: at 100 µg/ml
T1 construct: multimeric vWF (isolated from human plasma cryoprecipitate); Formalin-fixed platelets, prepared according to the method of MacFarlane; from tissue; host or cells: vWF from human plasma cryoprecipitate; GPIb on formalin-fixed platelets
T1 sequence (P04275 764-2813 limits assumed): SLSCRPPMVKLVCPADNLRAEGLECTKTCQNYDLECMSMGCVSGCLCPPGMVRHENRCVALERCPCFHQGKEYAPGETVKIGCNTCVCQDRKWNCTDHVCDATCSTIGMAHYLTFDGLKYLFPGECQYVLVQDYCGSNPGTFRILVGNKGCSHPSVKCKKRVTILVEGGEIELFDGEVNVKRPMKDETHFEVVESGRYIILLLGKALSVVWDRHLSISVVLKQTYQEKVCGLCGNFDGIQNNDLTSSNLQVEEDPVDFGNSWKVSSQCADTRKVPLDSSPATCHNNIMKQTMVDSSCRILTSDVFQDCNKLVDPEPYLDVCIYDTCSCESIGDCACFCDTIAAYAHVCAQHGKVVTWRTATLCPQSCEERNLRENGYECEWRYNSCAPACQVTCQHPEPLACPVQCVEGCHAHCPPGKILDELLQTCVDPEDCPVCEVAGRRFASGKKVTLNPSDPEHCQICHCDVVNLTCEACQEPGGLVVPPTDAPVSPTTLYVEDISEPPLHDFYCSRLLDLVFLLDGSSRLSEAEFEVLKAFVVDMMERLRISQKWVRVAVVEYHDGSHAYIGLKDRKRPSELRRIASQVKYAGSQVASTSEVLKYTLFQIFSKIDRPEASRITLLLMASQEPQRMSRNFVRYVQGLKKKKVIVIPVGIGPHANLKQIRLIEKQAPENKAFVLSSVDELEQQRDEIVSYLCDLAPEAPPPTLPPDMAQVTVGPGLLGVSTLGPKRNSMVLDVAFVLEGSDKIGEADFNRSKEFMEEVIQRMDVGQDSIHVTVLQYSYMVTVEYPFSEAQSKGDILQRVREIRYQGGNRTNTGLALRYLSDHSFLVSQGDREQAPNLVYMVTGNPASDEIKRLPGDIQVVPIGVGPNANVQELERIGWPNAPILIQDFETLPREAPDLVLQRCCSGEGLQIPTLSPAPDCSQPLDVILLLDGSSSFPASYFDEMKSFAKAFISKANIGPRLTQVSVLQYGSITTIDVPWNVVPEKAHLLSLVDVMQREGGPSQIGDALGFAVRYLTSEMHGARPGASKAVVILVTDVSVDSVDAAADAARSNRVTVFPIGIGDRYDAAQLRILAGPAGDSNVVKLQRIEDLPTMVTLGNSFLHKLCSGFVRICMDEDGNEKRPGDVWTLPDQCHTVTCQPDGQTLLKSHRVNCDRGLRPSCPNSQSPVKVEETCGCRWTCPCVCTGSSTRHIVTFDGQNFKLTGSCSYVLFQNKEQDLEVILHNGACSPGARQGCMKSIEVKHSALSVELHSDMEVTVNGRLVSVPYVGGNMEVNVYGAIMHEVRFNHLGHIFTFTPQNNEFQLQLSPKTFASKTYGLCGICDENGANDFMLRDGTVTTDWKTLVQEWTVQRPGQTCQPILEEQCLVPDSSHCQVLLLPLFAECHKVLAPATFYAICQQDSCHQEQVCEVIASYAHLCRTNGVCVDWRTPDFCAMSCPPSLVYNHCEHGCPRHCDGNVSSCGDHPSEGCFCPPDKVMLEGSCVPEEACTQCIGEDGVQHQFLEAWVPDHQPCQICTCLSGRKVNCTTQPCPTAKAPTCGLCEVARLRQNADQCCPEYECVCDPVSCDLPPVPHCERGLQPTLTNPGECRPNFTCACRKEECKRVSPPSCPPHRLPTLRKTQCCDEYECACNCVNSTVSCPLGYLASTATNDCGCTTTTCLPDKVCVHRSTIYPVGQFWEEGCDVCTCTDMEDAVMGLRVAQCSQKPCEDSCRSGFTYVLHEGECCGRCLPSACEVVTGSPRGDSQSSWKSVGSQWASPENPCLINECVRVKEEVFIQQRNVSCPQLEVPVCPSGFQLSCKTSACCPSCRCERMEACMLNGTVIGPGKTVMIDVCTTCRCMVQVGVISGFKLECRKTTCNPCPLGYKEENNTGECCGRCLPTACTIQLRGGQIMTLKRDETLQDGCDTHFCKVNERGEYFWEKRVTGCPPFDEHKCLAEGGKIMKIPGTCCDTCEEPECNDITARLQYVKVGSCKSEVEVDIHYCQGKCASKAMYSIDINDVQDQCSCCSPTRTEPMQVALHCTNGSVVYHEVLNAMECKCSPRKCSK
T1 sequence (P07359 17-652): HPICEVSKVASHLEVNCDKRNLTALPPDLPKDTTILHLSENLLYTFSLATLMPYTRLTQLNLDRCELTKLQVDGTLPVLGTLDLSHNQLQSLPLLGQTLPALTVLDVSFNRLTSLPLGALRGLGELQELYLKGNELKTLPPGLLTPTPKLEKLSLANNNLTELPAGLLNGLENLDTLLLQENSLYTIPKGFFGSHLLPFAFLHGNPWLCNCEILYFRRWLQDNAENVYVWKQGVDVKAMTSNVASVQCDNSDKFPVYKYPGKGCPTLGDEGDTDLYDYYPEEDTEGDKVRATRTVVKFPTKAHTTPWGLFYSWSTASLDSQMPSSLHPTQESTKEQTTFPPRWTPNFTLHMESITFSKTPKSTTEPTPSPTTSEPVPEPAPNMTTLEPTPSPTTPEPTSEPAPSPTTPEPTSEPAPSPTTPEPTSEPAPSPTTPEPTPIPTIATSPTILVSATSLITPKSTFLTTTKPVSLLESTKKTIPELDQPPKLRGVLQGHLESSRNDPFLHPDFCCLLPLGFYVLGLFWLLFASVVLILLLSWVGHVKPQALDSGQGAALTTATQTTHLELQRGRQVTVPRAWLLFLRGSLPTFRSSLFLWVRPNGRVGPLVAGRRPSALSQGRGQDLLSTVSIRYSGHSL
Method: The binding of vWf (vonWillebrand Factor) to glycoprotein Ib is measured in one of two experimental systems, in the presence of either ristocetin or botrocetin as modulators of binding. The ristocetin modulated binding is described herein.
Formalin-fixed platelets, prepared according to the method of MacFarlane, D. et al., Thromb. Diath. Haemorrh. 34, 306-308 (1975), were preincubated at room temperature for 15 minutes with specified dilutions of oligomers according to the present invention. Ristocetin, (Sigma, St. Louis, MO) diluted to a final concentration of 1.0 mg/ml, and ^125I-labelled multimeric vWF (isolated from human plasma cryoprecipitate according to the method of Fulcher, C.A. et al. Proc. Natl. Acad. Sci. USA, 79, 1648-1652 (1982), and labelled according to the method of Fraker, P.J. et al. Biochem. Biophys. Res. Commun., 80, 849-857 (1978)) were then added to the incubation mixture, and the amount of ^125I- vWF bound to the platelets was determined. ^125I-vWF binding to the platelets was referenced against 100% binding which was defined as the amount of ^125I- vWF bound in the absence of added oligomer compound. The method for measuring vWF binding is reported in detail in Ruggeri et al., J. Clin. Invest., 72, 1-12, (1983), herein incorporated by reference.

[1] = target: T2, ESb mouse lymphoma heparanase (Mus musculus, UniProt Q6YGZ1); experiment: Inhibition of heparanase activity (degradation of labeled ECM heparan sulfate); format: biochemical; conditions: 24 hours incubation with labeled ECM
T2 construct: endogenous in cells; host or cells: ESb mouse lymphoma cells
T2 sequence (Q6YGZ1 28-535): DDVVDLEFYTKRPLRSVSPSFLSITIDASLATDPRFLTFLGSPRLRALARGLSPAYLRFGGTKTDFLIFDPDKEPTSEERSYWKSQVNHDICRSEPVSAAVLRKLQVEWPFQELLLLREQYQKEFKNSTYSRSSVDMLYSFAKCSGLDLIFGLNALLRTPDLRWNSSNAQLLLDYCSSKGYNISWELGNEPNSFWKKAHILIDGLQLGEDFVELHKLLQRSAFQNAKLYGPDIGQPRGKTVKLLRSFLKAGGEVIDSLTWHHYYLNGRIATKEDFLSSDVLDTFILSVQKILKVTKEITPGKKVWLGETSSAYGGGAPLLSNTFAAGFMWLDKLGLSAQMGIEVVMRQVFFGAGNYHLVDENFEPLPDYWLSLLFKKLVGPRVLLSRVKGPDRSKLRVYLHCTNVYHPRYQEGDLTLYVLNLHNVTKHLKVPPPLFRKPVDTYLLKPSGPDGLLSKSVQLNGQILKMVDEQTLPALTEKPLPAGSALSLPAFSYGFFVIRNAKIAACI
Method: Heparanase is an endoglucuronidase capable of degrading […] (HS) at specific intrachain sites.
The ability of compounds of the present invention to inhibit lymphomacell derived heparanase is tested in the assay system described by Vlodavsky et al., Cancer Research 43, 2704-2711 (1983). […] labeled ECM is incubated for 24 hours with ESb mouse lymphoma heparanase in the presence of various concentrations of the oligomers tested. Degradation of the HS is followed by gel filtration of the supematants. Heparanase activity is expressed as the total amount of labeled low-molecular-weight fragments released from the EMC substrate.

[2] = system: human fixed thrombin activated platelets; experiment: Platelet aggregation inhibition (fibrinogen-induced); format: cell-based; conditions: human fibrinogen added
Method: The method for measuring platelet aggregation inhibition is essentially that of Ruggeri, et al., Proc. Natl. Acad. Sci. USA, 83, 5708-5712 (1986), using formalin-fixed platelets as prepared by Plow, et al., Proc. Natl. Acad. Sci. USA, 79, 3711-3715 (1982). A given amount of the compound of the present invention or other compound to be tested (10 to 100 µl of a 1 mg/ml solution) is incubated at 37°C with 400 µl of human fixed thrombin activated platelets for 2 minutes. 12.5 µl of human fibrinogen solution is added and aggregation is monitored using a platelet aggregation profiler (Model PAP-4). Controls consist of fibrinogen added to incubated platelets and the resulting aggregation is considered as 100%. Percent inhibition in the presence of a given concentration of test compound versus concentration of the compound is plotted and the concentration required to give 50% inhibition (IC50) is determined.

Structure (SMILES)	Ristocetin-Induced Inhibition of vWF Binding to Gp1b IC50 (vWF Binding to Gp1b) [µg/mL]	IC50 (vWF Binding to Gp1b) [µM]	% Inhibition of Heparanase Activity (5µg/ml) [1] [%]	Platelet Aggregation IC50 [2] [µg/mL]	Ristocetin-Induced Inhibition of vWF Binding to Gp1b (vWF Binding to Gp1b) [% at 100 µg/ml]	APTT ICDCT (normal pooled plasma) [µg/mL]
COc1cc(C)c(CCC(=O)O)cc1Cc1cc(OC)c(Cc2cc(OC)c(Cc3cc(OC)c(Cc4cc(OC)c(Cc5cc(OC)c(Cc6cc(OC)c(Cc7cc(O)ccc7CCC(=O)O)cc6CCC(=O)O)cc5CCC(=O)O)cc4CCC(=O)O)cc3CCC(=O)O)cc2CCC(=O)O)cc1CCC(=O)O [Ex 5, Step 2, 5-[4-[4-[4-[4-[4-[4-[[2-(2-carboxyethyl)-5-hydroxy]benzyl]-[2-(2-carboxyethyl)-5-methoxy]benzyl]-[2-(2-carboxyethyl)-5-methoxy]benzyl]-[2-(2-carboxyethyl)-5-methoxy]benzyl]-[2-(2-carboxyethyl)-5-methoxy]benzyl]-[2-(2-carboxyethyl)-5-methoxy]benzyl]-[2-(2-carboxyethyl)-5-methoxy]benzyl]-4-methoxy-2-methylhydrocinnamic acid]	–	–	20	>1000	–	37
COc1cc(CCc2cc(OC)c(Cc3cc(OC)c(Cc4cc(OC)c(Cc5cc(O)ccc5CCC(=O)O)cc4CCC(=O)O)cc3CCC(=O)O)cc2CCC(=O)O)c(CCC(=O)O)cc1Cc1cc(OC)c(Cc2cc(OC)c(Cc3cc(O)ccc3CCC(=O)O)cc2CCC(=O)O)cc1CCC(=O)O [Ex 7, 1,2-bis-[4-[4-[4-[[2-(2-carboxyethyl)-5-hydroxy]benzyl]-[2-(2-carboxyethyl)-5-methoxy]benzyl]-[2-(2-carboxyethyl)-5-methoxy]benzyl]-[2-(2-carboxyethyl)-5-methoxy]phenyl]ethane]	–	–	–	–	17	500
COc1cc(Cc2cc(CCC(=O)O)c(C)cc2O)c(CCC(=O)O)cc1Cc1cc(OC)c(Cc2cc(OC)c(Cc3cc(OC)c(Cc4cc(OC)c(Cc5cc(OC)c(Cc6cc(OC)c(Cc7cc(OC)c(Cc8cc(OC)c(Cc9cc(OC)c(Cc%10cc(OC)c(Cc%11cc(OC)c(Cc%12cc(OC)c(Cc%13cc(OC)c(Cc%14cc(O)ccc%14CCC(=O)O)cc%13CCC(=O)O)cc%12CCC(=O)O)cc%11CCC(=O)O)cc%10CCC(=O)O)cc9CCC(=O)O)cc8CCC(=O)O)cc7CCC(=O)O)cc6CCC(=O)O)cc5CCC(=O)O)cc4CCC(=O)O)cc3CCC(=O)O)cc2CCC(=O)O)cc1CCC(=O)O [Ex 8]	–	–	70	–	–	35
COc1cc(CCc2cc(OC)c(Cc3cc(OC)c(Cc4cc(OC)c(Cc5cc(OC)c(Cc6cc(OC)c(Cc7cc(OC)c(Cc8cc(OC)c(Cc9cc(O)ccc9CCC(=O)O)cc8CCC(=O)O)cc7CCC(=O)O)cc6CCC(=O)O)cc5CCC(=O)O)cc4CCC(=O)O)cc3CCC(=O)O)cc2CCC(=O)O)c(CCC(=O)O)cc1Cc1cc(OC)c(Cc2cc(OC)c(Cc3cc(OC)c(Cc4cc(OC)c(Cc5cc(OC)c(Cc6cc(OC)c(Cc7cc(O)ccc7CCC(=O)O)cc6CCC(=O)O)cc5CCC(=O)O)cc4CCC(=O)O)cc3CCC(=O)O)cc2CCC(=O)O)cc1CCC(=O)O [Ex 9, 1,2-bis-[4-[4-[4-[4-[4-[4-[4-[[2-(2-carboxyethyl)-5-hydroxy]benzyl]-[2-(2-carboxyethyl)-5-methoxy]benzyl]-[2-(2-carboxyethyl)-5-methoxy]benzyl]-[2-(2-carboxyethyl)-5-methoxy]benzyl]-[2-(2-carboxyethyl)-5-methoxy]benzyl]-[2-(2-carboxyethyl)-5-methoxy]benzyl]-[2-(2-carboxyethyl)-5-methoxy]benzyl]-[2-(2-carboxyethyl)-5-methoxy]phenyl]ethane]	–	–	52	319	–	105
COC(=O)CCc1cc(OCc2cc(OC)c(OCc3cc(OC)c(OCc4cc(OC)c(OC(C)=O)cc4CCC(=O)OC)cc3CCC(=O)OC)cc2CCC(=O)OC)c(OC)cc1CO [Ex 10, Step 13]	–	–	–	–	–	>250

More lines, main results first:

Ristocetin-Induced Inhibition of vWF Binding to Gp1b IC50 (vWF Binding to Gp1b) [µg/mL]	IC50 (vWF Binding to Gp1b) [µM]	% Inhibition of Heparanase Activity (5µg/ml) [1] [%]	Platelet Aggregation IC50 [2] [µg/mL]	Ristocetin-Induced Inhibition of vWF Binding to Gp1b (vWF Binding to Gp1b) [% at 100 µg/ml]	Structure (SMILES)	APTT ICDCT (normal pooled plasma) [µg/mL]
>100	–	–	–	–	COc1ccc(CCC(=O)O)c(COc2cc(CCC(=O)O)c(COc3cc(CCC(=O)O)c(COc4cc(CCC(=O)O)c(COc5cc(CCC(=O)O)ccc5OC)cc4OC)cc3OC)cc2OC)c1 [Ex12, Step 11, 2-[4-[4-[4-[[5-(2-carboxyethyl)-2-methoxy]phenoxymethyl]-[5-(2-carboxyethyl)-2-methoxy]phenoxymethyl]-[5-(2-carboxyethyl)-2-methoxy]phenoxymethyl]-[5-(2-carboxyethyl)-2-methoxy]phenoxymethyl]-4-methoxyhydrocinnamic acid]	>250
–	> 143	–	–	–	O=C(O)CCc1ccc(O)c(Cc2cc(CCC(=O)O)cc(Cc3cc(CCC(=O)O)cc(Cc4cc(CCC(=O)O)ccc4O)c3O)c2O)c1 [Ex 1, Step 3, bis-[5-(2-carboxyethyl)-3-[5-(2-carboxyethyl)-2-hydroxybenzyl]2-hydroxyphenyl]methane]	>250
–	–	–	>1000	42	O=C(O)CCc1cc(Cc2cc(O)c(Cc3cc(O)c(Cc4cc(O)ccc4CCC(=O)O)cc3CCC(=O)O)cc2CCC(=O)O)c(O)cc1CCc1cc(O)c(Cc2cc(O)c(Cc3cc(O)c(Cc4cc(O)ccc4CCC(=O)O)cc3CCC(=O)O)cc2CCC(=O)O)cc1CCC(=O)O [Ex 6, 1,2-bis-[4-[4-[4-[[2-(2-carboxyethyl)-5-hydroxy]benzyl]-[2-(2-carboxyethyl)-5-hydroxy]benzyl]-(2-(2-carboxyethyl)-5-hydroxy]benzyl]-[2-(2-carboxyethyl)-5-hydroxy]phenyl]ethane]	387
